Data from US5288720A, “Angiotensin II receptor blocking 2,3,6 substituted quinazolinones” (American Cyanamid Company, priority 1993, dated 1994).

Test system: ANGIOTENSIN II VASOPRESSOR RESPONSE
Assay: AII Challenge: blockade of angiotensin II vasopressor response in conscious SHR
Type: in vivo, rat (Conscious Male Okamoto-Aoki SHR)
Details: SHR n=2
Procedure, shortened: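 Conscious male Okamoto-Aoki SHR (16-20 weeks, ~330 g) cannulated in aorta and vena cava under local procaine; angiotensin II (human) 0.05 and 0.1 ug/kg i.v. given before and at 30-300 min after test compound i.v., i.p. or orally. Rise in systolic pressure (mmHg) expressed as % blockade versus each rat's predose response.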

[1] = 3 mg/kg p.o., AII 0.05 mcg/kg IV, 30 min post dose
[2] = 3 mg/kg p.o., AII 0.05 mcg/kg IV, 60 min post dose
[3] = 3 mg/kg p.o., AII 0.05 mcg/kg IV, 90 min post dose
[4] = 3 mg/kg p.o., AII 0.05 mcg/kg IV, 120 min post dose
[5] = 3 mg/kg p.o., AII 0.05 mcg/kg IV, 180 min post dose
[6] = 3 mg/kg p.o., AII 0.1 mcg/kg IV, 30 min post dose
[7] = 3 mg/kg p.o., AII 0.1 mcg/kg IV, 60 min post dose
[8] = 3 mg/kg p.o., AII 0.1 mcg/kg IV, 90 min post dose
[9] = 3 mg/kg p.o., AII 0.1 mcg/kg IV, 120 min post dose
[10] = 3 mg/kg p.o., AII 0.1 mcg/kg IV, 180 min post dose
[11] = 10 mg/kg i.v., AII 0.05 mcg/kg IV, 30 min post dose
[12] = 10 mg/kg i.v., AII 0.05 mcg/kg IV, 60 min post dose
[13] = 10 mg/kg i.v., AII 0.05 mcg/kg IV, 90 min post dose
[14] = 10 mg/kg i.v., AII 0.05 mcg/kg IV, 120 min post dose
[15] = 10 mg/kg i.v., AII 0.05 mcg/kg IV, 180 min post dose
[16] = 10 mg/kg i.v., AII 0.05 mcg/kg IV, 240 min post dose
[17] = 10 mg/kg i.v., AII 0.05 mcg/kg IV, 300 min post dose
[18] = 10 mg/kg i.v., AII 0.1 mcg/kg IV, 30 min post dose
[19] = 10 mg/kg i.v., AII 0.1 mcg/kg IV, 60 min post dose
[20] = 10 mg/kg i.v., AII 0.1 mcg/kg IV, 90 min post dose
[21] = 10 mg/kg i.v., AII 0.1 mcg/kg IV, 120 min post dose
[22] = 10 mg/kg i.v., AII 0.1 mcg/kg IV, 180 min post dose
[23] = 10 mg/kg i.v., AII 0.1 mcg/kg IV, 240 min post dose
[24] = 10 mg/kg i.v., AII 0.1 mcg/kg IV, 300 min post dose
[25] = 3 mg/kg i.v., AII 0.05 mcg/kg IV, 30 min post dose
[26] = 3 mg/kg i.v., AII 0.05 mcg/kg IV, 60 min post dose
[27] = 3 mg/kg i.v., AII 0.05 mcg/kg IV, 90 min post dose
[28] = 3 mg/kg i.v., AII 0.05 mcg/kg IV, 120 min post dose
[29] = 3 mg/kg i.v., AII 0.05 mcg/kg IV, 180 min post dose
[30] = 3 mg/kg i.v., AII 0.05 mcg/kg IV, 240 min post dose
[31] = 3 mg/kg i.v., AII 0.05 mcg/kg IV, 300 min post dose
[32] = 3 mg/kg i.v., AII 0.1 mcg/kg IV, 30 min post dose
[33] = 3 mg/kg i.v., AII 0.1 mcg/kg IV, 60 min post dose
[34] = 3 mg/kg i.v., AII 0.1 mcg/kg IV, 120 min post dose
[35] = 3 mg/kg i.v., AII 0.1 mcg/kg IV, 180 min post dose
[36] = 3 mg/kg i.v., AII 0.1 mcg/kg IV, 240 min post dose
[37] = 3 mg/kg i.v., AII 0.1 mcg/kg IV, 300 min post dose
[38] = 3 mg/kg p.o., AII 0.05 mcg/kg IV, 240 min post dose
[39] = 3 mg/kg p.o., AII 0.1 mcg/kg IV, 240 min post dose

## CCCCc1nc2ccc(C(OC)C3CCCN(C)C3=O)cc2c(=O)n1Cc1ccc(-c2ccccc2-c2nn[nH]n2)cc1 (single isomer, unassigned; isomer 1) [Example 42, 2-Butyl-6-methoxy(1-methyl-2-oxo-3-piperidinyl)methyl]-3-[[2' -1H-tetrazol-5-yl)[1,1'-biphenyl]-4-yl]methyl-4(3H)-quinazolinone isomer 1]
[1]
  % Inhibition of AII vasopressor response: 19%
  Average Change (systolic blood pressure response to AII): 32.5 mmHg
[2]
  % Inhibition of AII vasopressor response: 19%
  Average Change (systolic blood pressure response to AII): 32.5 mmHg
[3]
  % Inhibition of AII vasopressor response: 50%
  Average Change (systolic blood pressure response to AII): 20 mmHg
[4]
  % Inhibition of AII vasopressor response: 19%
  Average Change (systolic blood pressure response to AII): 32.5 mmHg
[5]
  % Inhibition of AII vasopressor response: -2%
  Average Change (systolic blood pressure response to AII): 41 mmHg
[6]
  % Inhibition of AII vasopressor response: 22%
  Average Change (systolic blood pressure response to AII): 35 mmHg
[7]
  % Inhibition of AII vasopressor response: 22%
  Average Change (systolic blood pressure response to AII): 35 mmHg
[8]
  % Inhibition of AII vasopressor response: 13%
  Average Change (systolic blood pressure response to AII): 39 mmHg
[9]
  % Inhibition of AII vasopressor response: 11%
  Average Change (systolic blood pressure response to AII): 40 mmHg
[10]
  % Inhibition of AII vasopressor response: 0%
  Average Change (systolic blood pressure response to AII): 45 mmHg
[11]
  % Inhibition of AII vasopressor response: 100%
  Average Change (systolic blood pressure response to AII): 0 mmHg
[12]
  % Inhibition of AII vasopressor response: 86%
  Average Change (systolic blood pressure response to AII): 5 mmHg
[13]
  % Inhibition of AII vasopressor response: 93%
  Average Change (systolic blood pressure response to AII): 2.5 mmHg
[14]
  % Inhibition of AII vasopressor response: 93%
  Average Change (systolic blood pressure response to AII): 2.5 mmHg
[15]
  % Inhibition of AII vasopressor response: 64%
  Average Change (systolic blood pressure response to AII): 12.5 mmHg
[16]
  % Inhibition of AII vasopressor response: 43%
  Average Change (systolic blood pressure response to AII): 20 mmHg
[17]
  % Inhibition of AII vasopressor response: 43%
  Average Change (systolic blood pressure response to AII): 20 mmHg
[18]
  % Inhibition of AII vasopressor response: 100%
  Average Change (systolic blood pressure response to AII): 0 mmHg
[19]
  % Inhibition of AII vasopressor response: 82%
  Average Change (systolic blood pressure response to AII): 7.5 mmHg
[20]
  % Inhibition of AII vasopressor response: 76%
  Average Change (systolic blood pressure response to AII): 10 mmHg
[21]
  % Inhibition of AII vasopressor response: 65%
  Average Change (systolic blood pressure response to AII): 15 mmHg
[22]
  % Inhibition of AII vasopressor response: 59%
  Average Change (systolic blood pressure response to AII): 17.5 mmHg
[23]
  % Inhibition of AII vasopressor response: 65%
  Average Change (systolic blood pressure response to AII): 15 mmHg
[24]
  % Inhibition of AII vasopressor response: 47%
  Average Change (systolic blood pressure response to AII): 22.5 mmHg

## CCCCc1nc2ccc(C(O)C3CCN(C)C3=O)cc2c(=O)n1Cc1ccc(-c2ccccc2-c2nn[nH]n2)cc1 (single isomer, unassigned; isomer 2) [Example 33, 2-Butyl-6-[hydroxy(1-methyl-2-oxo-3-pyrrolidinyl)methyl-3-[[2'-(1H-tetrazol-5-yl)[1,1'-biphenyl]-4-yl]methyl]-4(3H)-quinazolinone isomer 2]
[25]
  % Inhibition of AII vasopressor response: 100%
  Average Change (systolic blood pressure response to AII): 0 mmHg
[26]
  % Inhibition of AII vasopressor response: 100%
  Average Change (systolic blood pressure response to AII): 0 mmHg
[27]
  % Inhibition of AII vasopressor response: 100%
  Average Change (systolic blood pressure response to AII): 0 mmHg
[28]
  % Inhibition of AII vasopressor response: 100%
  Average Change (systolic blood pressure response to AII): 0 mmHg
[29]
  % Inhibition of AII vasopressor response: 81%
  Average Change (systolic blood pressure response to AII): 7.5 mmHg
[30]
  % Inhibition of AII vasopressor response: 56%
  Average Change (systolic blood pressure response to AII): 17.5 mmHg
[31]
  % Inhibition of AII vasopressor response: 44%
  Average Change (systolic blood pressure response to AII): 22.5 mmHg
[32]
  % Inhibition of AII vasopressor response: 86%
  Average Change (systolic blood pressure response to AII): 7.5 mmHg
[33]
  % Inhibition of AII vasopressor response: 89%
  Average Change (systolic blood pressure response to AII): 6 mmHg
3 mg/kg i.v., AII 0.1 mcg/kg IV, 90 min post dose
  Average Change (systolic blood pressure response to AII): 7.5 mmHg
[34]
  % Inhibition of AII vasopressor response: 81%
  Average Change (systolic blood pressure response to AII): 10 mmHg
[35]
  % Inhibition of AII vasopressor response: 52%
  Average Change (systolic blood pressure response to AII): 25 mmHg
[36]
  % Inhibition of AII vasopressor response: 33%
  Average Change (systolic blood pressure response to AII): 35 mmHg
[37]
  % Inhibition of AII vasopressor response: 38%
  Average Change (systolic blood pressure response to AII): 32.5 mmHg
[1]
  % Inhibition of AII vasopressor response: 80%
  Average Change (systolic blood pressure response to AII): 10 mmHg
[2]
  % Inhibition of AII vasopressor response: 65%
  Average Change (systolic blood pressure response to AII): 17.5 mmHg
[3]
  % Inhibition of AII vasopressor response: 50%
  Average Change (systolic blood pressure response to AII): 25 mmHg
[4]
  % Inhibition of AII vasopressor response: 63%
  Average Change (systolic blood pressure response to AII): 18.5 mmHg
[5]
  % Inhibition of AII vasopressor response: 35%
  Average Change (systolic blood pressure response to AII): 32.5 mmHg
[38]
  % Inhibition of AII vasopressor response: 30%
  Average Change (systolic blood pressure response to AII): 35 mmHg
[6]
  % Inhibition of AII vasopressor response: 63%
  Average Change (systolic blood pressure response to AII): 17.5 mmHg
[7]
  % Inhibition of AII vasopressor response: 47%
  Average Change (systolic blood pressure response to AII): 25 mmHg
[8]
  % Inhibition of AII vasopressor response: 37%
  Average Change (systolic blood pressure response to AII): 30 mmHg
[9]
  % Inhibition of AII vasopressor response: 53%
  Average Change (systolic blood pressure response to AII): 22.5 mmHg
[10]
  % Inhibition of AII vasopressor response: 21%
  Average Change (systolic blood pressure response to AII): 37.5 mmHg
[39]
  % Inhibition of AII vasopressor response: 0%
  Average Change (systolic blood pressure response to AII): 47.5 mmHg
